Data on one molecule can be found in patent US20250177364A1, “COMBINATION THERAPIES FOR BREAST CANCER” (Genentech, Inc., priority 2022, published 2025).

Data set [1] concerns ER-positive, HER2-negative ABC. The settings on record: 30 mg daily; previously treated patients; cited from earlier work.
The next data set has as its system HCC1419 cells. Briefly: Anti-proliferative activity, growth-rate (GR) inhibition method, CyQUANT. It counts as cell-based. The settings on record: 6 days after drug treatment, control GR=1, giredestrant 0.3 μM, trastuzumab and pertuzumab 30 μg/ml each. The protocol:
(§1) FIG. 3 depicts in vitro anti-proliferative activity of ER inhibition by giredestrant, and/or HER2 inhibition by the combination of trastuzumab and pertuzumab, assessed using the growth rate (GR) method in Example 1. Growth rate (GR) under control conditions is set to 1; lower growth rates equate to a greater anti-proliferative effect. Individual points reflect GR values at 0.3 μM giredestrant, and at […] trastuzumab and pertuzumab. Materials and Methods: ER+/HER2+ cell lines UACC-812, HCC1419 and ZR-75-30 cells were plated in 50 μL culture media in 384-well plates. Cells were incubated in humidified incubator overnight (37 degree, 5% CO2). Test materials were dispensed into 384-well plate on day 1; giredestrant was evaluated as a 9-point dose response (3-fold dose dilutions from a maximum concentration of 300 nM), and traztuzumab and pertuzumab were evaluated as a fixed dose at 30 μg/ml each. Fluorescence-based cell proliferation (CyQUANT®; ThermoFisher Scientific, Cat #C7026) readings were taken at day 1 to establish a baseline, and at 6 days following drug treatment. Analysis of the drug response was performed using the growth-rate (GR) inhibition method to avoid biases between slow and fast-growing lines (Hafner et al., Nat Methods 2016 June; 13 (6): 521-7)).

The next data set concerns UACC-812 cells. The description is as above. It counts as cell-based. The following applies: 6 days after drug treatment, control GR=1, giredestrant 0.3 μM, trastuzumab and pertuzumab 30 μg/ml each. The protocol:
as §1

For data set [2], the system named is ER-positive, HER2-negative EBC. The settings on record: neoadjuvant; cited from earlier work.
For data set [3], the system named is ER (ligand-binding domain of wild-type and mutant ER). The following applies: cited from earlier work.
Another data set deals with ZR-75-30 cells. Briefly: Anti-proliferative activity, growth-rate (GR) inhibition method, CyQUANT. It counts as cell-based. The settings on record: 6 days after drug treatment, control GR=1, giredestrant 0.3 μM, trastuzumab and pertuzumab 30 μg/ml each. As to the method:
FIG. 3 depicts in vitro anti-proliferative activity of ER inhibition by giredestrant, and/or HER2 inhibition by the combination of trastuzumab and pertuzumab, assessed using the growth rate (GR) method in Example 1. Growth rate (GR) under control conditions is set to 1; lower growth rates equate to a greater anti-proliferative effect. Individual points reflect GR values at 0.3 μM giredestrant, and at […] trastuzumab and pertuzumab.
Materials and Methods: ER+/HER2+ cell lines UACC-812, HCC1419 and ZR-75-30 cells were plated in 50 μL culture media in 384-well plates. Cells were incubated in humidified incubator overnight (37 degree, 5% CO2). Test materials were dispensed into 384-well plate on day 1; giredestrant was evaluated as a 9-point dose response (3-fold dose dilutions from a maximum concentration of 300 nM), and traztuzumab and pertuzumab were evaluated as a fixed dose at 30 μg/ml each. Fluorescence-based cell proliferation (CyQUANT®; ThermoFisher Scientific, Cat #C7026) readings were taken at day 1 to establish a baseline, and at 6 days following drug treatment. Analysis of the drug response was performed using the growth-rate (GR) inhibition method to avoid biases between slow and fast-growing lines (Hafner et al., Nat Methods 2016 June; 13 (6): 521-7)). […]

Data set [4] concerns ER-positive BC cell lines. The following applies: multiple ER-positive BC cell lines, including cells with ER mutations; cited from earlier work.

As to `C[C@@H]1Cc2c([nH]c3ccccc23)[C@@H](c2c(F)cc(NC3CN(CCCF)C3)cc2F)N1CC(F)(F)CO` [giredestrant, 3-((1R,3R)-1-(2,6-difluoro-4-((1-(3-fluoropropyl)azetidin-3-yl)amino)phenyl)-3-methyl-1,3,4,9-tetrahydro-2H-pyrido[3,4-b]indol-2-yl)-2,2-difluoropropan-1-ol], in data set [1], the Clinical activity entry is given as “promising signs of clinical activity”. Further, the Safety entry in data set [1] is recorded as “safe”. Further, the “Growth rate (GR) value” in the data set with HCC1419 cells is given as below 0.5; with UACC-812 cells, below 0.5; with ZR-75-30 cells it was above 0.75. The “Ki67 suppression and complete cell cycle arrest versus anastrozole” value in data set [2] was “superior to anastrozole”. Also, in data set [3] (Liang et al.), the “Potency compared to fulvestrant, tamoxifen and other oral SERDs” value was “higher potency”. Also, the “Potency of competitive binding to the ER” value in data set [3] (competes with estrogens) was “low nanomolar potency”. Further, in data set [4], the Inhibition of proliferation result is listed as “potently inhibits”.
